Test results as given in patent US7241803B2, “Compounds for inhibition of HIV infection by blocking HIV entry” (New York Blood Center, priority 2002, dated 2007).

How the values were obtained:
gp120-CD4 binding = molecular target: T1, gp120-CD4 binding (Human immunodeficiency virus type 1 group M subtype B, UniProt P03375); set-up: species or system HIV-1; conditions: 10 μg/ml
T1 construct: purchased Immunodiagnostics, Woburn, Mass; (gp120); Genentech Inc., South San Francisco, Calif; (sCD4)
Procedure: Inhibition of gp120 binding to CD4. Wells of polystyrene plates was coated with 100 μl of sheep anti-gp120 antibody D7324 (Cliniqa, Fallbrook, Calif.) at 2 μg/ml in carbonate buffer (pH 9.6) at 4° C. overnight and blocked with 1% dry fat-free milk in PBS at 37° C. for 1 h. One hundred microliters of recombinant gp120 molecule (Immunodiagnostics, Woburn, Mass.) at 0.5 μg/ml in PBS was added and incubated at 37° C. for 1 h, followed by three washes with PBS-T. Soluble CD4 (sCD4) at 0.25 μg/ml was added in the presence of a compound (25 μM) and incubated at 37° C. for 1 h. After three washes, rabbit anti-sCD4 IgG (0.25 μg/ml in PBS, 100 μl/well) was added and incubated at 37° C. for 1 h. Binding of rabbit anti-sCD4 IgG was determined by sequential addition of biotinylated goat-anti-rabbit IgG, SA-HRP, and TMB. After the reactions were terminated, absorbance at 450 nm was recorded in an ELISA reader (Tecan).
HIV-1 envelope glycoprotein gp120 was captured by the anti-gp120 antibody coated onto wells of polystyrene plates. […] After extensive washes, CD4 molecule bound to gp120 was quantitated by ELISA using anti-CD4 antibody.

[1] = system: 5.25M7 & PBMCs infected by BCF02 (Group O, R5)
Procedure: (§1) Inhibition of fusion between PBMCs infected by primary HIV-1 strains (X4 and R5 viruses) with CEMx174 5.25 M7 cells, which express CD4 and both coreceptors, CXCR4 and CCR5, was determined by a luciferase assay. Briefly, 50 μl of compound at graded concentration in triplicate was incubated with equal volume of PHA-stimulated PBMCs (1×10^5/ml) infected by corresponding primary HIV-1 strains, respectively, for 7 days as described above. After incubation at 37° C. for 30 min, 100 μl of CEMx174 5.25 M7 cells (2×10^5) were added and incubated at 37° C. for three days. The cells were collected, washed, and lysed with the lysing reagent included in the luciferase kit (Promega, Corp., Madison, Wis.). Aliquots of cell lysates were transferred to 96-well flat-bottom luminometer plates (Costar, Corning Inc., Corning, N.Y.), followed by addition of luciferase substrate (Promega). The luciferase activity was measured in the Ultra 384 luminometer (Tecan).

[2] = system: 5.25M7 & PBMCs infected by 92UG657 (clade B, R5)
Procedure: as §1

[3] = system: 5.25M7 & PBMCs infected by 93IN101 (clade C, R5)
Procedure: as §1

[4] = system: 5.25M7 & PBMCs infected by 93TH051 (clade E, X4R5)
Procedure: as §1

[5] = system: 5.25M7 & PBMCs infected by 93BR020 (clade F, X4R5)
Procedure: as §1

[6] = system: 5.25M7 & PBMCs infected by 92UG029 (clade A, X4)
Procedure: as §1

[7] = system: 5.25M7 & PBMCs infected by CMU02 (clade E, R5)
Procedure: as §1

[8] = system: 5.25M7 & PBMCs infected by 93UG065 (clade D, X4R5)
Procedure: as §1

[9] = system: 5.25M7 & PBMCs/SF162 (clade B, R5)
Procedure: as §1

[10] = system: gp41 pocket presented on IQN17
Procedure: Inhibition of a biotinylated D-peptide binding to IQN17. For measuring the binding of a D-peptide, D10-p5-2k to IQN17, an ELISA was established. In brief, wells of a 96-well polystyrene plate were coated with IgG (10 μg/ml) purified from rabbit antisera directed against IQN17. The peptide IQN17 (10 μM) was incubated with a compound at graded concentrations at 37° C. for 30 min before addition of the peptide D10-p5-2K-biotin (5 μM). After incubation at 37° C. for 30 min, the mixture was added to the plate, followed by incubation at 37° C. for 30 min. After extensive washes, D10-p5-2K-biotin bound to the IQN17 was quantitated by addition of SA-HRP and TMB sequentially. The absorbance at 450 nm was read using an ELISA reader (Tecan). The percentage of inhibition by the compounds was calculated as described above.

HIV-1IIIB = assay: time-of-addition assay; type: cell-based; conditions: for time of addition at which HIV replication is inhibited: summary statement
Procedure: Assessment of anti-HIV-1 infectivity. […] Reactions were terminated by addition of 1N H2SO4.
MT-2 cells were incubated with HIV-1IIIB at 37° C. for 0, 1, 2, 3, 4, 6, and 8 hrs, respectively, before addition of the test compounds at 10 μg/ml. AZT (2.5 μM) was used as a control. After culture for another 2 hrs, the cells were washed to remove the free virus and compounds. The supernatants were collected on day 4 post-infection for measurement of p24 production.

[11] = 10 μg/ml added one hour or longer after virus
[12] = 10 μg/ml added to the cells with virus together

Structure (SMILES)	inhibition of gp120-CD4 binding (gp120-CD4 binding)	IC50 (μg/ml) for inhibition of cell-cell fusion [1] [µg/mL]	IC50 (μg/ml) for inhibition of cell-cell fusion [2] [µg/mL]	IC50 (μg/ml) for inhibition of cell-cell fusion [3] [µg/mL]	IC50 (μg/ml) for inhibition of cell-cell fusion [4] [µg/mL]	IC50 (μg/ml) for inhibition of cell-cell fusion [5] [µg/mL]	IC50 (μg/ml) for inhibition of cell-cell fusion [6] [µg/mL]	IC50 (μg/ml) for inhibition of cell-cell fusion [7] [µg/mL]	IC50 (μg/ml) for inhibition of cell-cell fusion [8] [µg/mL]	IC50 (μg/ml) for inhibition of cell-cell fusion [9] [µg/mL]	inhibition of biotinylated D10-p5-2K binding to IQN17 [10]	inhibition of HIV-1 replication, time of addition (HIV-1IIIB; [11])	inhibition of HIV-1 replication, time of addition (HIV-1IIIB; [12])	time of addition at which HIV replication is inhibited (HIV-1IIIB)
Cc1ccc(C)n1-c1ccc(C(=O)O)c(O)c1 [NB-2]	did not significantly inhibited	0.93 ± 0.57	6.64 ± 1.13	3.27 ± 0.18	1.76 ± 0.07	1.66 ± 0.07	2.50 ± 0.02	8.14 ± 1.09	6.07 ± 0.07	4.86 ± 0.34	significantly inhibited	no inhibitory activity	inhibited HIV-1 replication	only when they were added to the cells less than two hours after virus addition
O=C(O)c1cc(-n2cccc2)ccc1Cl [NB-64]	did not significantly inhibited	10.30 ± 5.90	39.00 ± 5.27	18.26 ± 0.01	12.72 ± 0.32	2.24 ± 0.31	2.21 ± 0.56	4.89 ± 1.08	20.77 ± 1.94	20.86 ± 0.20	significantly inhibited	no inhibitory activity	inhibited HIV-1 replication	only when they were added to the cells less than two hours after virus addition
